The target in one assay is T1, BTK (Homo sapiens, UniProt Q06187).
T1 construct: High control=Cell group with added DMSO and without compound, indicating microplate readings without BTK degradation; endogenous in cells; host or cells: TMD-8
Put plainly: BTK degradation in TMD-8 cells (HTRF assay). The note with it: 6 h treatment, IC50 (DC50) of BTK degradation. It counts as cell-based. The method in brief:
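BTK remaining after compound treatment was measured by HTRF (337 nm excitation, 665/620 nm emission) in lysates of TMD-8 cells. Cells were exposed for 6 h to eight 6-fold-spaced concentrations in 0.2% DMSO. DC50 values were obtained from a Hill-equation fit (top, bottom, slope) of % inhibition.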

For the next assay, the system named is HEK-293 cells. Put plainly: HEK-293 cytotoxicity detection (CellTiter-Glo). In kind it is cell-based. The method in brief: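 Four-parameter logistic fitting of percent inhibition versus concentration gives IC50. Luminescent ATP read-out (CellTiter-Glo) after 72 h compound treatment of HEK-293 cells, 8 doses in 4-fold steps from a 5 mM 500× DMSO stock, final DMSO 0.2%.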
In general terms: ATP-based viability assays read luminescence as a measure of living cells.

[1] abbreviates: Homo sapiens, HEK-293 cells, 72 h incubation, CellTiter-Glo luminescence, IC50 of cell proliferation inhibition, read-out: HEK293.

Read-outs that look alike come from different tables or passages of the source.

T1 sequence (Q06187 whole entry): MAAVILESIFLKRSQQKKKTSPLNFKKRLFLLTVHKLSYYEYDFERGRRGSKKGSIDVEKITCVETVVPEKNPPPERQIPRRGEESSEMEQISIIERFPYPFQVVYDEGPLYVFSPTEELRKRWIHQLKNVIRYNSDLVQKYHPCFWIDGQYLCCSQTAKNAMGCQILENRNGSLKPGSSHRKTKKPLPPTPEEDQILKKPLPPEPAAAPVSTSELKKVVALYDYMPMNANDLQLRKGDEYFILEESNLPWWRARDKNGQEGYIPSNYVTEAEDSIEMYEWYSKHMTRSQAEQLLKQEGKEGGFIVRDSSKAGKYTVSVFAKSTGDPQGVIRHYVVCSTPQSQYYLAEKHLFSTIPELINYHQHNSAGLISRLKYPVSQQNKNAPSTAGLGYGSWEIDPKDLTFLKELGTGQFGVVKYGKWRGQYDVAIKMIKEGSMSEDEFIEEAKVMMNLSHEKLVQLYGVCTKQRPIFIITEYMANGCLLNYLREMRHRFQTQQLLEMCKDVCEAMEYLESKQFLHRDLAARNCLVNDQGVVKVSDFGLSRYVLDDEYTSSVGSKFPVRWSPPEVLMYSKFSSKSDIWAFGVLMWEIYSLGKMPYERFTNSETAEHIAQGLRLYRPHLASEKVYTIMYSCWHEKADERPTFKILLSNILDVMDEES

In general, DC50 refers to the concentration giving 50% degradation. The low end stands for a more potent degrader, the high end for a less potent degrader. In the case of `Cc1cc(-c2ncnc3[nH]c4cc(N5CCC6(CCN(CC7CCN(c8ccc(N9CCC(=O)NC9=O)cc8)CC7)CC6)CC5)ccc4c23)ccc1[C@@H](C)NC(=O)c1nc(C(C)(C)C)no1` [Example 114, (R)-3-(tert-butyl)-N-(1-(4-(7-(9-((1-(4-(2,4-dioxotetrahydropyrimidin-1(2H)-yl)phenyl)piperidin-4-yl)methyl)-3,9-diazaspiro[5.5]undecan-3-yl)-9H-pyrimido[4,5-b]indol-4-yl)-2-methylphenyl)ethyl)-1,2,4-oxadiazole-5-carboxamide], the DC50 at BTK came out at 1.89 nM. For the same molecule, the IC50 in the assay with HEK-293 cells (setting [1]) stood at 923 nM.
On the same counts, the results for `Cc1cc(-c2ncnc3[nH]c4cc(N5CCN([C@H]6C[C@@H](c7ccc(NC8CCC(=O)NC8=O)cc7)C6)CC5)ccc4c23)ccc1[C@@H](C)NC(=O)c1nc(C2(C)CC2)no1` (stereo partly drawn) [Example 115, N-((1R)-1-(4-(7-(4-((1s,3s)-3-(4-((2,6-dioxopiperidin-3-yl)amino)phenyl)cyclobutyl)piperazin-1-yl)-9H-pyrimido[4,5-b]indol-4-yl)-2-methylphenyl)ethyl)-3-(1-methylcyclopropyl)-1,2,4-oxadiazole-5-carboxamide] are 0.759 nM and more than 10000 nM.
In the same order, the values of `Cc1cc(-c2ncnc3[nH]c4cc(N5CCN([C@H]6C[C@H](c7ccc(NC8CCC(=O)NC8=O)cc7)C6)CC5)ccc4c23)ccc1[C@@H](C)NC(=O)c1nc(C2(C)CC2)no1` (stereo partly drawn) [Example 116, N-((1R)-1-(4-(7-(4-((1r,3r)-3-(4-((2,6-dioxopiperidin-3-yl)amino)phenyl)cyclobutyl)piperazin-1-yl)-9H-pyrimido[4,5-b]indol-4-yl)-2-methylphenyl)ethyl)-3-(1-methylcyclopropyl)-1,2,4-oxadiazole-5-carboxamide] are 0.509 nM and more than 10000 nM.
The molecule `Cc1cc(-c2ncnc3[nH]c4cc(N5CCN([C@H]6C[C@H](c7ccc(N[C@@H]8CCC(=O)NC8=O)cc7)C6)CC5)ccc4c23)ccc1[C@@H](C)NC(=O)c1nc(C2(C)CC2)no1` [Example 117, N—((R)-1-(4-(7-(4-((1R,3r)-3-(4-(((R)-2,6-dioxopiperidin-3-yl)amino)phenyl)cyclobutyl)piperazin-1-yl)-9H-pyrimido[4,5-b]indol-4-yl)-2-methylphenyl)ethyl)-3-(1-methylcyclopropyl)-1,2,4-oxadiazole-5-carboxamide] returned a DC50 on BTK of 0.981 nM. The IC50 with HEK-293 cells (setting [1]) was more than 10000 nM.
The molecule `Cc1cc(-c2ncnc3[nH]c4cc(N5CCN([C@H]6C[C@@H](c7ccc(N[C@@H]8CCC(=O)NC8=O)cc7)C6)CC5)ccc4c23)ccc1[C@@H](C)NC(=O)c1nc(C2(C)CC2)no1` [Example 118, N—((R)-1-(4-(7-(4-((1S,3s)-3-(4-(((R)-2,6-dioxopiperidin-3-yl)amino)phenyl)cyclobutyl)piperazin-1-yl)-9H-pyrimido[4,5-b]indol-4-yl)-2-methylphenyl)ethyl)-3-(1-methylcyclopropyl)-1,2,4-oxadiazole-5-carboxamide] returned a DC50 on BTK of 1.73 nM. Further, in the assay on HEK-293 cells (setting [1]), the IC50 is more than 10000 nM.
In the same order, the values of `Cc1cc(-c2ncnc3[nH]c4cc(N5CCN([C@H]6C[C@H](c7ccc(N[C@H]8CCC(=O)NC8=O)cc7)C6)CC5)ccc4c23)ccc1[C@@H](C)NC(=O)c1nc(C2(C)CC2)no1` [Example 119, N—((R)-1-(4-(7-(4-((1S,3r)-3-(4-(((S)-2,6-dioxopiperidin-3-yl)amino)phenyl)cyclobutyl)piperazin-1-yl)-9H-pyrimido[4,5-b]indol-4-yl)-2-methylphenyl)ethyl)-3-(1-methylcyclopropyl)-1,2,4-oxadiazole-5-carboxamide] are 2.51 nM and more than 10000 nM.
In the same order, the values of `Cc1cc(-c2ncnc3[nH]c4cc(N5CCN([C@H]6C[C@@H](c7ccc(N[C@H]8CCC(=O)NC8=O)cc7)C6)CC5)ccc4c23)ccc1[C@@H](C)NC(=O)c1nc(C2(C)CC2)no1` [Example 120, N—((R)-1-(4-(7-(4-((1R,3s)-3-(4-(((S)-2,6-dioxopiperidin-3-yl)amino)phenyl)cyclobutyl)piperazin-1-yl)-9H-pyrimido[4,5-b]indol-4-yl)-2-methylphenyl)ethyl)-3-(1-methylcyclopropyl)-1,2,4-oxadiazole-5-carboxamide] are 1.25 nM and more than 10000 nM.
On the same counts, the results for `Cc1cc(-c2ncnc3[nH]c4cc(N5CCN(C6CN(C7CN(c8ccc9c(c8)C(=O)N(C8CCC(=O)NC8=O)C9=O)C7)C6)CC5)ccc4c23)ccc1[C@@H](C)NC(=O)c1nc(C2(C)CC2)no1` (stereo partly drawn) [Example 121, N-((1R)-1-(4-(7-(4-(1′-(2-(2,6-dioxopiperidin-3-yl)-1,3-dioxoisoindolin-5-yl)-[1,3′-biazetidin]-3-yl)piperazin-1-yl)-9H-pyrimido[4,5-b]indol-4-yl)-2-methylphenyl)ethyl)-3-(1-methylcyclopropyl)-1,2,4-oxadiazole-5-carboxamide] are 1.58 nM and more than 10000 nM.
Regarding `Cc1cc(-c2ncnc3[nH]c4cc(N5CCN(C6CN(C7CN(c8ccc(N9CCC(=O)NC9=O)cc8)C7)C6)CC5)ccc4c23)ccc1[C@@H](C)NC(=O)c1nc(C2(C)CC2)no1` [Example 122, (R)—N-(1-(4-(7-(4-(1′-(4-(2,4-dioxotetrahydropyrimidin-1(2H)-yl)phenyl)-[1,3′-biazetidin]-3-yl)piperazin-1-yl)-9H-pyrimido[4,5-b]indol-4-yl)-2-methylphenyl)ethyl)-3-(1-methylcyclopropyl)-1,2,4-oxadiazole-5-carboxamide], the DC50 on BTK was found to be 0.395 nM. Besides, the IC50 with HEK-293 cells (setting [1]) was more than 10000 nM.
`Cc1cc(-c2ncnc3[nH]c4cc(N5CCN(CCc6ccc7c(c6)C6(CC6)C(=O)N7C6CCC(=O)NC6=O)CC5)ccc4c23)ccc1[C@@H](C)NC(=O)c1nc(C2(C)CC2)no1` (stereo partly drawn) [Example 123, N-((1R)-1-(4-(7-(4-(2-(1′-(2,6-dioxopiperidin-3-yl)-2′-oxospiro[cyclopropane-1,3′-indolin]-5′-yl)ethyl)piperazin-1-yl)-9H-pyrimido[4,5-b]indol-4-yl)-2-methylphenyl)ethyl)-3-(1-methylcyclopropyl)-1,2,4-oxadiazole-5-carboxamide] had a DC50 on BTK of 0.192 nM. In addition, the IC50 in the assay on HEK-293 cells (Homo sapiens, HEK293, 72 h, read-out: HEK293 (nM)) is more than 10000 nM.
In turn, `Cc1cc(-c2ncnc3[nH]c4cc(N5CCN(CCc6cccc7c6C6(CC6)C(=O)N7C6CCC(=O)NC6=O)CC5)ccc4c23)ccc1[C@@H](C)NC(=O)c1nc(C2(C)CC2)no1` (stereo partly drawn) [Example 124, N-((1R)-1-(4-(7-(4-(2-(1′-(2,6-dioxopiperidin-3-yl)-2′-oxospiro[cyclopropane-1,3′-indolin]-4′-yl)ethyl)piperazin-1-yl)-9H-pyrimido[4,5-b]indol-4-yl)-2-methylphenyl)ethyl)-3-(1-methylcyclopropyl)-1,2,4-oxadiazole-5-carboxamide] had a DC50 at BTK of 0.838 nM. For the same molecule, the IC50 with HEK-293 cells (setting [1]) is more than 10000 nM.
For `Cc1cc(-c2ncnc3[nH]c4cc(N5CCN(C6CC(c7ccc(N8CCC(=O)NC8=O)cc7)C6)CC5)ccc4c23)ccc1[C@@H](C)NC(=O)c1nc(C2(C)CC2)no1` (stereo partly drawn) [Example 125, (R)—N-(1-(4-(7-(4-(3-(4-(2,4-dioxotetrahydropyrimidin-1(2H)-yl)phenyl)cyclobutyl)piperazin-1-yl)-9H-pyrimido[4,5-b]indol-4-yl)-2-methylphenyl)ethyl)-3-(1-methylcyclopropyl)-1,2,4-oxadiazole-5-carboxamide], the DC50 on BTK was 0.197 nM. In addition, the IC50 with HEK-293 cells (setting [1]) is more than 10000 nM.
On the same counts, the results for `Cc1cc(-c2ncnc3[nH]c4cc(N5CCN(CC6CN(c7ccc(N8CCC(=O)NC8=O)cc7)C6)CC5)ccc4c23)ccc1[C@@H](C)NC(=O)c1nc(C2(C)CC2)no1` [Example 126, (R)—N-(1-(4-(7-(4-((1-(4-(2,4-dioxotetrahydropyrimidin-1(2H)-yl)phenyl)azetidin-3-yl)methyl)piperazin-1-yl)-9H-pyrimido[4,5-b]indol-4-yl)-2-methylphenyl)ethyl)-3-(1-methylcyclopropyl)-1,2,4-oxadiazole-5-carboxamide] are 0.449 nM and more than 10000 nM.
`COc1cc2c(cc1N1CCN([C@H]3C[C@@H](c4ccc(O[C@@H]5CCC(=O)NC5=O)cc4)C3)CC1)[nH]c1ncnc(-c3ccc([C@@H](C)NC(=O)c4nc(C(C)(C)C)no4)c(C)c3)c12` [Example 127, 3-(tert-butyl)-N—((R)-1-(4-(7-(4-((1S,3s)-3-(4-(((R)-2,6-dioxopiperidin-3-yl)oxy)phenyl)cyclobutyl)piperazin-1-yl)-6-methoxy-9H-pyrimido[4,5-b]indol-4-yl)-2-methylphenyl)ethyl)-1,2,4-oxadiazole-5-carboxamide] displayed a DC50 on BTK of 2.49 nM. The IC50 in the assay with HEK-293 cells (setting [1]) is more than 10000 nM.
Turning to `COc1cc2c(cc1N1CCN([C@H]3C[C@@H](c4ccc(O[C@H]5CCC(=O)NC5=O)cc4)C3)CC1)[nH]c1ncnc(-c3ccc([C@@H](C)NC(=O)c4nc(C(C)(C)C)no4)c(C)c3)c12` [Example 128, 3-(tert-butyl)-N—((R)-1-(4-(7-(4-((1R,3s)-3-(4-(((S)-2,6-dioxopiperidin-3-yl)oxy)phenyl)cyclobutyl)piperazin-1-yl)-6-methoxy-9H-pyrimido[4,5-b]indol-4-yl)-2-methylphenyl)ethyl)-1,2,4-oxadiazole-5-carboxamide], the DC50 on BTK turned out to be 2.12 nM. Moreover, the IC50 in the assay on HEK-293 cells (HEK-293 cells, 72 h incubation, CellTiter-Glo luminescence, IC50 of cell proliferation inhibition, read-out: HEK293) is more than 10000 nM.

The record behind these values is patent publication US20240366770A1, “DEGRADATION OF BRUTON'S TYROSINE KINASE (BTK) BY CONJUGATION OF BTK INHIBITORS WITH E3 LIGASE LIGAND AND METHODS OF USE” (BeiGene Switzerland GmbH, priority 2021, published 2024).
